PMC8411975, “Frag4Lead: growing crystallographic fragment hits by catalog using fragment-guided template docking” (Acta Crystallographica. Section D, Structural Biology, 2021)
Like-named read-outs stand apart in the source and are kept apart here.

Experiments:
endothiapepsin (EP) [1] = target: T1, endothiapepsin (EP) (Cryphonectria parasitica, UniProt P11838); parameters: method as in Schiebel, Radeva et al. (2016); details: starting fragments, ref Schiebel, Radeva et al. (2016), cited from earlier work; for Kd: read-out: Kd (dissociation constant of the compound from EP)
T1 sequence (P11838 90-419): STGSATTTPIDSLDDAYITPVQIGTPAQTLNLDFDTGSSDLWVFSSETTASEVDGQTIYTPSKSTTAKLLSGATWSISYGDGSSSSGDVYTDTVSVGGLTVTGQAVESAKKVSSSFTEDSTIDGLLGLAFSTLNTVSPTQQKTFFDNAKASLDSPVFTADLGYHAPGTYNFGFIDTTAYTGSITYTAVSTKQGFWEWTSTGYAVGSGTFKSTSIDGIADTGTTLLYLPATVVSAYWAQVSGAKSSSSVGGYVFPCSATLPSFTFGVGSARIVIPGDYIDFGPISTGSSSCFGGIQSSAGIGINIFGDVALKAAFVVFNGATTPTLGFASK

endothiapepsin (EP) [2] = target: T1, endothiapepsin (EP); assay: Isothermal titration calorimetry (direct or SAP114-displacement titration) against EP; type: binding; details: for LE (ligand efficiency): from ITC Kd; for Kd: read-out: Kd determined by ITC; for fold affinity increase compared with the starting fragment: ITC Kd of follow-up versus Kd of its starting fragment
Description: (§1) ITC experiments were conducted similarly to the procedure desribed by Schiebel, Radeva et al. (2016[▸]) on a MicroCal ITC200 (Malvern) instrument. All buffer solutions for ITC were prepared with the same batch of buffer as used to isolate the batch of EP. Details of the ITC experiments, including the protein and ligand concentrations for each experiment, are listed in Supplementary Table S2. […] All displacement titrations were conducted as single measurements, except for that of FU5-2 (n = 3). The affinities of the stronger binding follow-up ligands were determined by direct ITC titrations. For this, 1 mM compound in a buffer solution consisting of 0.1 M sodium acetate pH 4.6, 3%(v/v) DMSO was titrated into the same buffer additionally containing 50 µM EP to a final stoichiometry of N = 4.
The obtained thermogram peaks of all titrations (Supplementary Fig. S4) were integrated with Nitpic 1.1.8 (Keller et al., 2012[▸]). Subsequently, fitting of a single-site binding-model isotherm was performed using SEDPHAT 10.58d (Houtman et al., 2007[▸]). For the errors of the fit, see Supplementary Table S3. […] During the fit, ΔH was corrected for the heat of dilution, which was individually fitted for each experiment. The stoichiometry was arbitrarily fixed at the anticipated stoichiometry of N = 1 as appropriate for the present low c-value titrations (Rühmann et al., 2015[▸]).
Table S2. Details of ITC measurements.
Follow-Up Titration Concentration Ligand Concentration Final Stoichiometry
Compound Type in Cell Concentration in Syringe (Ligand:Protein)
[a] 0.1% (v/v) Tween 20 in s yringe and cell.
Table S3. Fitting statistics for ITC titration curves
Compound Global reduced chi-square[a] local rmsd[a] (B:A) n[c] Kd [µM] (SD)[d]
Isotherm fitting statistics of ITC data, anal yzed vi a SEDPHAT 10.58d (Houtman et al., 2007).
[a] Goodness of fit p arameters (glob al reduced chi-squ are and wei ghted local rmsd)
[b] Stochiometry o f the ligand protein A and t he ligand B at the infl ection point of the
[c] Number of used data points corresponding to injections of the ITC ex periment

endothiapepsin (EP) [3] = target: T1, endothiapepsin (EP); assay: Compound soaking into EP crystals and X-ray crystal structure determination; type: binding; details: soaking at 100 mM or supernatant, 16–22 h
Description: The follow-up compounds (a full list, including providers and purities, if known, is given in Supplementary Table S1) were directly dissolved in a soaking solution consisting of 68.2 mM sodium acetate pH 4.6, 68.2 mM ammonium acetate pH 7.0, 16.9%(w/v) PEG 4000, 19.3%(v/v) glycerol, 9.09%(v/v) DMSO to a concentration of 100 mM. For poorly soluble follow-up compounds, crystals were soaked in the supernatant of the solution. After incubation for 16–22 h the crystals were flash-cooled in liquid nitrogen and stored for diffraction data collection.
All data collections were carried out on beamlines BL14.1 and BL14.2 of the BESSY II electron-storage ring operated by the Helmholtz-Zentrum Berlin (HZB; Mueller et al., 2015[▸]). Typically, 360° of data were collected in 0.1° increments using an exposure time of 0.1 s. Data were automatically processed using XDSAPP (Sparta et al., 2016[▸]).
All structures were refined using the automated script fspipeline, which is based on Schiebel, Krimmer et al. (2016[▸]). The starting model was based on PDB entry 4y5l (Schiebel, Krimmer et al., 2016[▸]), from which all ligands and water molecules were removed. Electron-density maps and coordinate files obtained from the automated refinement were inspected manually for each experiment to judge the presence or absence of the expected ligand in the difference electron density. Subsequently, the identified hits were subjected to several rounds of alternating model building in Coot (Emsley et al., 2010[▸]) and refinement in Phenix (Liebschner et al., 2019[▸]) before and after ligand placement. For all follow-up ligands, occupancy refinement was carried out. Refined models and the corresponding electron-density maps were submitted to the PDB under group deposition ID G_1002201.

[4] = Solubility noted during ITC sample preparation; type: physicochemical; details: ITC buffer, 0.1 M sodium acetate pH 4.6, 3%(v/v) DMSO
Description: as §1

[5] = Stability of synthesized compound on exposure to air; type: physicochemical; details: exposed to air at room temperature over a longer period of time

Compound	LE (ligand efficiency, binding energy per non-H atom) (endothiapepsin (EP) [1])	Kd (endothiapepsin (EP) [1])	LE (ligand efficiency) (endothiapepsin (EP) [2])	Kd (endothiapepsin (EP) [2])	binding observed in crystal structure after soaking (endothiapepsin (EP) [3])	also measured
NC1=NCc2ccccc21 [F005]	0.38 kcal mol^−1 per atom	1700 µM				
N=C(N)N/N=C1\N=C(N)c2ccccc21 [FU5-4]			0.31 kcal mol^−1 per atom	400 µM		
O=C(CN1CCCCC1)Nc1ccc2c(c1)OCO2 [F041]	0.22 kcal mol^−1 per atom	900 µM				
NCc1ccc(-c2ccco2)nc1 [F066]	0.35 kcal mol^−1 per atom	400 µM				
Cc1cc(CN)n(C)n1 [F058]	0.31 kcal mol^−1 per atom	8800 µM				
CN(C)CCNC(=O)c1cc2n(n1)CCN(c1ccnc(N)n1)C2 [FU58-2]					observed in crystal structures	
NC1=NC(=O)c2ccccc21 [FU5-3]			0.39 kcal mol^−1 per atom	740 µM	retained the binding pose of F005	
Oc1nc(-c2ccco2)ccc1CN(Cc1ccccn1)C1CC1 [FU66-1]			0.21 kcal mol^−1 per atom	160 µM	observed in the crystal structure	
N=C(N)SCc1ccc(CSC(=N)N)cc1 [FU290-1]			0.44 kcal mol^−1 per atom	7.2 µM		fold affinity increase compared with the starting fragment (endothiapepsin (EP) [2]): 14 fold
CSc1ccc(CNCCO)cc1 [FU58-3b, 2-{[4-(methylthio)benzyl]amino}ethan-1-ol]					identified in the electron density	
N=C(N)SCc1ccc(Cl)cc1 [F290]	0.45 kcal mol^−1 per atom	100 µM				
CC(SC(=N)N)c1ccc(Cl)cc1 (stereo not shown) [FU290-2]			0.40 kcal mol^−1 per atom	160 µM		
Cc1noc(C)c1CN(C)Cc1cc2n(n1)CCN(c1cc(N)ncn1)C2 [FU58-1]			0.17 kcal mol^−1 per atom	450 µM	observed in crystal structures	fold affinity increase compared with the starting fragment (endothiapepsin (EP) [2]): about 20 fold
CSc1ccc(CN(CCO)Cc2cc(C)nn2C)cc1 [FU58-3]			0.19 kcal mol^−1 per atom	1040 µM	observed in crystal structures	
N=C1N=C(N)c2ccccc21 [FU5-2]			0.37 kcal mol^−1 per atom	970 µM	retained the binding pose of F005	
NC1=N/C(=N\Nc2ccccc2)c2ccccc21 [FU5-1]						solubility [4]: poor solubility; stability of the compound [5]: decomposition
